Test results from PubChem BioAssay (NCI).
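Grown in 96-well plates, cells were treated for 48 hours with each compound at five concentrations. Insufficient inhibition: endpoint recorded as highest concentration tested. TGI marks complete inhibition of growth.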

Tests used:
Assay in all cases: NCI-60 cell line screen, 48 h
KM12 colon = test system: KM12 colon
SK-OV-3 ovarian = test system: SK-OV-3 ovarian
SW-620 colon = test system: SW-620 colon
CAKI-1 renal = test system: CAKI-1 renal
DU-145 prostate = test system: DU-145 prostate
LOX IMVI melanoma = test system: LOX IMVI melanoma
BT-549 breast = test system: BT-549 breast
A498 renal = test system: A498 renal
UACC-62 melanoma = test system: UACC-62 melanoma
SK-MEL-5 melanoma = test system: SK-MEL-5 melanoma

CN1C(=O)[C@](C)(Cc2ccc(F)cc2)N(C(=O)OC(C)(C)C)[C@@H]1C(C)(C)C
TGI (KM12 colon): > 100 µM
TGI (SK-OV-3 ovarian): > 100 µM
TGI (SW-620 colon): > 100 µM
TGI (CAKI-1 renal): > 100 µM
TGI (DU-145 prostate): > 100 µM
TGI (LOX IMVI melanoma): 53 µM
TGI (BT-549 breast): > 100 µM
TGI (A498 renal): 70 µM
TGI (UACC-62 melanoma): > 100 µM
TGI (SK-MEL-5 melanoma): 37.6 µM

O=C1CSC2=NC3=C(COC/C3=C\c3ccc(F)cc3)C(c3ccc(F)cc3)N12 (stereo not given)
TGI (KM12 colon): > 100 µM
TGI (SK-OV-3 ovarian): > 100 µM
TGI (SW-620 colon): > 100 µM
TGI (CAKI-1 renal): > 100 µM
TGI (DU-145 prostate): > 100 µM
TGI (LOX IMVI melanoma): > 100 µM
TGI (BT-549 breast): > 100 µM
TGI (A498 renal): > 100 µM
TGI (UACC-62 melanoma): > 100 µM
TGI (SK-MEL-5 melanoma): > 100 µM

COc1cc(C)c(S(=O)(=O)N(CCCN)OCCCN)c(C)c1C
TGI (KM12 colon): > 100 µM
TGI (SK-OV-3 ovarian): > 100 µM
TGI (SW-620 colon): > 100 µM
TGI (CAKI-1 renal): > 100 µM
TGI (DU-145 prostate): > 100 µM
TGI (LOX IMVI melanoma): 84.6 µM
TGI (BT-549 breast): 66.5 µM
TGI (A498 renal): > 100 µM
TGI (UACC-62 melanoma): > 100 µM
TGI (SK-MEL-5 melanoma): 53 µM

CC(=O)OCC12C(OC(C)=O)C[C@@H](C)C3(CC(c4ccoc4)OC3=O)C1CCC(OC(C)=O)C21CO1 (stereo not given in full)
TGI (KM12 colon): > 100 µM
TGI (SK-OV-3 ovarian): > 100 µM
TGI (SW-620 colon): > 100 µM
TGI (CAKI-1 renal): > 100 µM
TGI (DU-145 prostate): > 100 µM
TGI (LOX IMVI melanoma): > 100 µM
TGI (BT-549 breast): > 100 µM
TGI (A498 renal): > 100 µM
TGI (UACC-62 melanoma): > 100 µM
TGI (SK-MEL-5 melanoma): > 100 µM

CC(=O)c1c2c(cc3c1CCC3)CCC2
TGI (KM12 colon): > 100 µM
TGI (SK-OV-3 ovarian): > 100 µM
TGI (SW-620 colon): > 100 µM
TGI (CAKI-1 renal): > 100 µM
TGI (DU-145 prostate): > 100 µM
TGI (LOX IMVI melanoma): > 100 µM
TGI (BT-549 breast): > 100 µM
TGI (A498 renal): > 100 µM
TGI (UACC-62 melanoma): > 100 µM
TGI (SK-MEL-5 melanoma): > 100 µM

COc1ccc2c(-c3csc(-c4c[nH]c5ccccc45)n3)c[nH]c2c1
TGI (KM12 colon): 14.8 µM
TGI (SK-OV-3 ovarian): 42.7 µM
TGI (SW-620 colon): > 100 µM
TGI (CAKI-1 renal): 32.8 µM
TGI (DU-145 prostate): > 44.8 µM
TGI (LOX IMVI melanoma): > 31.9 µM
TGI (BT-549 breast): > 100 µM
TGI (A498 renal): 21.6 µM
TGI (UACC-62 melanoma): > 94.8 µM
TGI (SK-MEL-5 melanoma): 30.6 µM

CN(C)/C=C/C(=O)c1cccc(C(=O)/C=C/N(C)C)n1
TGI (KM12 colon): > 100 µM
TGI (SK-OV-3 ovarian): > 100 µM
TGI (SW-620 colon): > 100 µM
TGI (LOX IMVI melanoma): > 100 µM
TGI (A498 renal): > 100 µM
TGI (UACC-62 melanoma): > 100 µM
TGI (SK-MEL-5 melanoma): > 100 µM

CCOC(=O)CCN1C(=O)c2c(NC(=O)C(=O)O)cccc2S1(=O)=O
TGI (KM12 colon): > 100 µM
TGI (SK-OV-3 ovarian): > 100 µM
TGI (SW-620 colon): > 100 µM
TGI (CAKI-1 renal): > 100 µM
TGI (DU-145 prostate): > 100 µM
TGI (LOX IMVI melanoma): > 100 µM
TGI (BT-549 breast): > 100 µM
TGI (A498 renal): > 100 µM
TGI (UACC-62 melanoma): > 100 µM

Fc1sc2c(c1F)C1CCC2C1 (stereo not given)
TGI (KM12 colon): > 100 µM
TGI (SK-OV-3 ovarian): > 100 µM
TGI (SW-620 colon): > 100 µM
TGI (CAKI-1 renal): > 100 µM
TGI (DU-145 prostate): > 100 µM
TGI (LOX IMVI melanoma): > 100 µM
TGI (A498 renal): > 100 µM
TGI (UACC-62 melanoma): > 100 µM
TGI (SK-MEL-5 melanoma): > 100 µM

CC1CN=C(N(C(=O)Nc2ccccc2)C2CCCCC2)S1 (stereo not given)
TGI (KM12 colon): 36.3 µM
TGI (SK-OV-3 ovarian): > 100 µM
TGI (SW-620 colon): 28.5 µM
TGI (CAKI-1 renal): 31.2 µM
TGI (DU-145 prostate): 69.7 µM
TGI (LOX IMVI melanoma): 27.1 µM
TGI (A498 renal): 34.7 µM
TGI (SK-MEL-5 melanoma): 28.4 µM

C=C1CC2C[C@H](OS(=O)(=O)c3ccc(C)cc3)C(C1)N2C (stereo not given in full)
TGI (KM12 colon): > 100 µM
TGI (SK-OV-3 ovarian): > 100 µM
TGI (SW-620 colon): > 100 µM
TGI (CAKI-1 renal): > 100 µM
TGI (DU-145 prostate): > 100 µM
TGI (LOX IMVI melanoma): > 100 µM
TGI (BT-549 breast): > 100 µM
TGI (UACC-62 melanoma): > 100 µM
TGI (SK-MEL-5 melanoma): > 100 µM

O=S1(=O)OCCOS(=O)(=O)C1S(=O)(=O)c1cccc2ccccc12
TGI (KM12 colon): > 100 µM
TGI (SW-620 colon): > 100 µM
TGI (CAKI-1 renal): > 100 µM
TGI (DU-145 prostate): > 100 µM
TGI (LOX IMVI melanoma): > 100 µM
TGI (BT-549 breast): > 100 µM
TGI (SK-MEL-5 melanoma): > 100 µM

COC1OC(=O)C(OC)C(OC)C1OC (stereo not given)
TGI (KM12 colon): > 100 µM
TGI (SK-OV-3 ovarian): > 100 µM
TGI (SW-620 colon): > 100 µM
TGI (CAKI-1 renal): > 100 µM
TGI (DU-145 prostate): > 100 µM
TGI (LOX IMVI melanoma): > 100 µM
TGI (BT-549 breast): > 100 µM
TGI (A498 renal): > 100 µM
TGI (UACC-62 melanoma): > 100 µM
TGI (SK-MEL-5 melanoma): > 100 µM

CC1CC2OC(=N)C1(C#N)C2(C#N)C#N (stereo not given)
TGI (KM12 colon): > 100 µM
TGI (SK-OV-3 ovarian): > 100 µM
TGI (SW-620 colon): > 100 µM
TGI (CAKI-1 renal): 20.5 µM
TGI (DU-145 prostate): > 100 µM
TGI (LOX IMVI melanoma): 31 µM
TGI (A498 renal): 42 µM
TGI (UACC-62 melanoma): > 100 µM
TGI (SK-MEL-5 melanoma): 22.2 µM

CC1[C@@H]2C[C@@H]3O[C@@]34[C@H]3CCC5Cc6nc7c(nc6C[C@@]5(C)C3(O)CC(=O)[C@@]24CO[C@]12OC(C)(C)CC2O)CC1CC[C@@H]2C3=C[C@H]4O[C@@]5(O[C@@](C)(CO)C[C@@H]5O)C(C)[C@@]4(O)[C@]3(C)[C@@H](O)CC2[C@]1(C)C7 (stereo not given in full)
TGI (KM12 colon): 0.893 µM
TGI (SK-OV-3 ovarian): 0.231 µM
TGI (SW-620 colon): 0.49 µM
TGI (CAKI-1 renal): > 3.52 µM
TGI (LOX IMVI melanoma): > 3.52 µM
TGI (A498 renal): 0.0643 µM
TGI (UACC-62 melanoma): 0.104 µM
TGI (SK-MEL-5 melanoma): > 3.52 µM

C/C(=N/NC(=O)c1ccccc1Nc1ccccc1C(=O)N/N=C(\C)c1ccc(C)cc1)c1ccc(C)cc1
TGI (KM12 colon): > 100 µM
TGI (SK-OV-3 ovarian): > 100 µM
TGI (SW-620 colon): > 100 µM
TGI (CAKI-1 renal): > 100 µM
TGI (DU-145 prostate): > 100 µM
TGI (BT-549 breast): > 100 µM
TGI (A498 renal): > 100 µM
TGI (UACC-62 melanoma): > 100 µM
TGI (SK-MEL-5 melanoma): > 100 µM

Cc1nc2cccc(F)c2c(=O)n1-c1nnc(C2CC2)s1
TGI (KM12 colon): > 10 µM
TGI (SK-OV-3 ovarian): > 10 µM
TGI (SW-620 colon): > 10 µM
TGI (CAKI-1 renal): > 10 µM
TGI (DU-145 prostate): > 10 µM
TGI (LOX IMVI melanoma): > 10 µM
TGI (UACC-62 melanoma): > 10 µM
TGI (SK-MEL-5 melanoma): > 10 µM

CN(C)CC(C)(C)C(=O)/C=C/c1ccccc1
TGI (KM12 colon): 28.5 µM
TGI (SW-620 colon): 31.1 µM
TGI (CAKI-1 renal): 40.3 µM
TGI (LOX IMVI melanoma): 25.6 µM
TGI (A498 renal): 39.5 µM
TGI (UACC-62 melanoma): 26.5 µM
TGI (SK-MEL-5 melanoma): 30.1 µM

COC1OC2COC(c3ccccc3)OC2C(OC(=S)c2ccccc2)C1O (stereo not given)
TGI (SK-OV-3 ovarian): 58.2 µM
TGI (SW-620 colon): > 100 µM
TGI (CAKI-1 renal): > 100 µM
TGI (DU-145 prostate): > 100 µM
TGI (LOX IMVI melanoma): 20.5 µM
TGI (BT-549 breast): > 100 µM
TGI (A498 renal): > 100 µM
TGI (UACC-62 melanoma): > 100 µM
TGI (SK-MEL-5 melanoma): > 100 µM

CC1C/C(=C\c2ccc(O)c(O)c2)C(=O)/C(=C/c2ccc(O)c(O)c2)C1 (stereo not given)
TGI (KM12 colon): 20.9 µM
TGI (SK-OV-3 ovarian): 53.1 µM
TGI (SW-620 colon): 34.6 µM
TGI (CAKI-1 renal): 18.1 µM
TGI (DU-145 prostate): 20.8 µM
TGI (LOX IMVI melanoma): 23.4 µM
TGI (A498 renal): 12.8 µM
TGI (UACC-62 melanoma): 13.6 µM
TGI (SK-MEL-5 melanoma): 13.7 µM

Cn1c(-c2cccs2)cc(-c2ccsc2)c1-c1ccsc1
TGI (KM12 colon): > 100 µM
TGI (SK-OV-3 ovarian): > 100 µM
TGI (SW-620 colon): > 100 µM
TGI (CAKI-1 renal): > 100 µM
TGI (DU-145 prostate): > 100 µM
TGI (BT-549 breast): > 100 µM
TGI (A498 renal): > 100 µM
TGI (UACC-62 melanoma): > 100 µM
TGI (SK-MEL-5 melanoma): > 100 µM

CC(=O)c1nc(C#N)c(N)o1
TGI (KM12 colon): > 100 µM
TGI (SK-OV-3 ovarian): > 100 µM
TGI (SW-620 colon): > 100 µM
TGI (CAKI-1 renal): > 100 µM
TGI (DU-145 prostate): > 100 µM
TGI (LOX IMVI melanoma): > 100 µM
TGI (A498 renal): > 100 µM
TGI (UACC-62 melanoma): > 100 µM
